This note sets out measurements from ChEMBL document CHEMBL3112510, “Optimization, pharmacophore modeling and 3D-QSAR studies of sipholanes as breast cancer migration and proliferation inhibitors” (Eur J Med Chem, 2014).

Series [1] has as its system MDA-MB-231. Nature of the series: Antiproliferative activity against human MDA-MB-231 cells after 72 hrs by MTT assay. The settings on record: MDA-MB-231, 72 h. (Tetrazolium assays rely on reduction of a dye to a coloured formazan, in cell work by metabolically active cells.)
In series [2] the test system is MDA-MB-231. Put plainly: Antimigratory activity in human MDA-MB-231 cells after 24 hrs by wound healing assay. As to conditions: MDA-MB-231, 24 h.
For the next series, the system named is MCF7. Put plainly: cells. As to conditions: Homo sapiens, MCF7, 72 h.
The nature of series [3]: Cytotoxicity against human MCF10A cells at => IC50 of wound healing assay after 24 hrs by MTT assay. The settings on record: mcf-10a.
Series [4] in a line: Cytotoxicity against human MCF10A cells at => IC50 of antiproliferative assay after 24 hrs by MTT assay. The settings on record: mcf-10a.

`CC1=CC[C@H]2[C@H](CC[C@]2(C)O)C(C)(C)[C@@H]1CC[C@H]1[C@]2(C)CC[C@H](OC(=O)c3ccccc3F)C(C)(C)O[C@H]2CC[C@@]1(C)O`: the IC50 with MDA-MB-231 [1] is 28.7 µM; in the series on MDA-MB-231 [2] it was 22.7 µM; in the series on MDA-MB-231 [2] (read-out: pIC50 (converted)), 22.7 µM; in the series with MCF7 it was 11.3 µM. Besides, the Activity entry in series [3] and in series [4] was “Non-toxic” in each case.

With `CC1=CC[C@H]2[C@H](CC[C@]2(C)O)C(C)(C)[C@@H]1CC[C@H]1[C@]2(C)CC[C@H](OC(=O)c3ccc(C(F)(F)F)cc3)C(C)(C)O[C@H]2CC[C@@]1(C)O`, the IC50 was 19.5 µM in the series on MDA-MB-231 [1], 7.8 µM in the series with MDA-MB-231 [2], 7.8 µM in the series with MDA-MB-231 [2] (read-out: pIC50 (converted)) and 23.4 µM in the series on MCF7. In addition, the Activity entry in series [3] and in series [4] was “Non-toxic” throughout.

As for `CC1=CC[C@H]2[C@H](CC[C@]2(C)O)C(C)(C)[C@@H]1CC[C@H]1[C@]2(C)CC[C@H](OC(=O)c3ccc(C(F)(F)F)c(F)c3)C(C)(C)O[C@H]2CC[C@@]1(C)O`, the IC50 in the series with MDA-MB-231 [1] is 22.2 µM; with MDA-MB-231 [2], 11.9 µM; in the series on MDA-MB-231 [2] (read-out: pIC50 (converted)), 11.9 µM; in the series with MCF7, above 50 µM. Besides, the Activity entry in series [3] and in series [4] was “Non-toxic” in each case.

Regarding `CC1=CC[C@H]2[C@H](CC[C@]2(C)O)C(C)(C)[C@@H]1CC[C@H]1[C@]2(C)CC[C@H](OC(=O)c3ccc(C(F)(F)F)cc3F)C(C)(C)O[C@H]2CC[C@@]1(C)O`, the IC50 in the series on MDA-MB-231 [1] is 36.3 µM; with MDA-MB-231 [2], 26.4 µM; in the series on MDA-MB-231 [2] (read-out: pIC50 (converted)), 26.4 µM; with MCF7, above 50 µM. For the same compound, the Activity entry in series [3] and in series [4] was “Non-toxic” each time.

Consider `CC1=CC[C@H]2[C@H](CC[C@]2(C)O)C(C)(C)[C@@H]1CC[C@H]1[C@]2(C)CC[C@H](OC(=O)c3cccc(C(F)(F)F)c3)C(C)(C)O[C@H]2CC[C@@]1(C)O`, for which the IC50 was 36.3 µM with MDA-MB-231 [1], 6.1 µM in the series on MDA-MB-231 [2], 6.1 µM in the series with MDA-MB-231 [2] (read-out: pIC50 (converted)) and 37.9 µM with MCF7. Also, the Activity entry in series [3] and in series [4] was “Non-toxic” in each case.

Take `CC1=CC[C@H]2[C@H](CC[C@]2(C)O)C(C)(C)[C@@H]1CC[C@H]1[C@]2(C)CC[C@H](OC(=O)c3ccccc3Cl)C(C)(C)O[C@H]2CC[C@@]1(C)O`: the IC50 was determined as 24.3 µM with MDA-MB-231 [1], 6.1 µM with MDA-MB-231 [2] and 12.1 µM in the series with MCF7. Further, the Activity entry in series [3] and in series [4] was “Non-toxic” each time.

For the compound `CC1=CC[C@H]2[C@H](CC[C@]2(C)O)C(C)(C)[C@@H]1CC[C@H]1[C@]2(C)CC[C@H](OC(=O)c3ccccc3[N+](=O)[O-])C(C)(C)O[C@H]2CC[C@@]1(C)O`, the IC50 in the series with MDA-MB-231 [1] is 38.7 µM; with MDA-MB-231 [2], 18.6 µM; with MDA-MB-231 [2] (read-out: pIC50 (converted)), 18.6 µM; with MCF7, 5.2 µM. The Activity result in series [3] and in series [4] was “Non-toxic” in each case.

As for `CC1=CC[C@H]2[C@H](CC[C@]2(C)O)C(C)(C)[C@@H]1CC[C@H]1[C@]2(C)CC[C@H](OC(=O)c3ccc(Cl)c(Cl)c3)C(C)(C)O[C@H]2CC[C@@]1(C)O`, the IC50 in the series with MDA-MB-231 [1] was 8.1 µM; in the series with MDA-MB-231 [2], 1.3 µM; in the series with MDA-MB-231 [2] (read-out: pIC50 (converted)), 1.3 µM; in the series on MCF7 it was 11.9 µM. The Activity result in series [3] and in series [4] was “Non-toxic” throughout.

`COc1ccc(C(=O)O[C@H]2CC[C@]3(C)[C@H](CC[C@@](C)(O)[C@H]3CC[C@@H]3C(C)=CC[C@H]4[C@H](CC[C@]4(C)O)C3(C)C)OC2(C)C)cc1`: the IC50 in the series on MDA-MB-231 [1] was 30.6 µM; in the series on MDA-MB-231 [2] it was 17.9 µM; in the series on MDA-MB-231 [2] (read-out: pIC50 (converted)) it was 17.9 µM; with MCF7 it was 41.7 µM. For the same compound, the Activity result in series [3] and in series [4] was “Non-toxic” throughout.

Turning to `CC1=CC[C@H]2[C@H](CC[C@]2(C)O)C(C)(C)[C@@H]1CC[C@H]1[C@]2(C)CC[C@H](OC(=O)c3ccc(F)cc3)C(C)(C)O[C@H]2CC[C@@]1(C)O`, the IC50 is 11.3 µM with MDA-MB-231 [1], 2.4 µM with MDA-MB-231 [2], 2.4 µM with MDA-MB-231 [2] (read-out: pIC50 (converted)) and 33.5 µM with MCF7. In addition, the Activity entry in series [3] and in series [4] was “Non-toxic” each time.

For the compound `C[C@@H]1CC[C@H]2[C@@H](/C1=C/C[C@H]1[C@]3(C)CCC(=O)C(C)(C)O[C@H]3CC[C@@]1(C)O)C(C)(C)CC[C@]2(C)O`, the IC50 with MDA-MB-231 [1] was above 50 µM; with MDA-MB-231 [2] it was 28 µM; with MDA-MB-231 [2] (read-out: pIC50 (converted)), 28 µM; in the series with MCF7 it was above 50 µM.

Regarding `CC1=CC[C@H]2[C@H](CC[C@]2(C)O)C(C)(C)[C@@H]1CC[C@H]1[C@]2(C)CC[C@H](OC(=O)CCC(=O)O)C(C)(C)O[C@H]2CC[C@@]1(C)O`, the IC50 was 27.9 µM in the series on MDA-MB-231 [1], 18 µM in the series on MDA-MB-231 [2], 18 µM in the series on MDA-MB-231 [2] (read-out: pIC50 (converted)) and above 50 µM in the series with MCF7.

Regarding `CC1=C(CC[C@H]2[C@]3(C)CC[C@H](O)C(C)(C)O[C@H]3CC[C@@]2(C)O)[C@@H]2[C@H](CC1=O)[C@@](C)(O)CCC2(C)C`, the IC50 with MDA-MB-231 [1] was above 50 µM; with MDA-MB-231 [2], above 50 µM; with MDA-MB-231 [2] (read-out: pIC50 (converted)), 84.9 µM; with MCF7, above 50 µM.

Take `CC1=CC[C@H]2[C@H](CC[C@]2(C)O)C(C)(C)[C@@H]1CC[C@H]1[C@]2(C)CC/C(=N/OCc3ccccc3)C(C)(C)O[C@H]2CC[C@@]1(C)O`: the IC50 in the series on MDA-MB-231 [1] was 38.2 µM; in the series on MDA-MB-231 [2], 31.4 µM; with MDA-MB-231 [2] (read-out: pIC50 (converted)), 31.4 µM; in the series on MCF7, above 50 µM.

`CC1=CC[C@H]2[C@H](CC[C@]2(C)O)C(C)(C)[C@@H]1CC[C@H]1[C@]2(C)CC[C@H](OC(=O)c3ccc([N+](=O)[O-])cc3)C(C)(C)O[C@H]2CC[C@@]1(C)O`: the IC50 in the series with MDA-MB-231 [1] is 8.9 µM; in the series with MDA-MB-231 [2], 3.4 µM; in the series on MDA-MB-231 [2] (read-out: pIC50 (converted)) it was 3.35 µM; in the series with MCF7 it was 21.6 µM. The Activity result in series [3] and in series [4] was “Non-toxic” throughout.

As to `CC1(C)O[C@H]2CC[C@@](C)(O)[C@@H](CC[C@@H]3C(CO)=CC[C@H]4[C@H](CC[C@]4(C)O)C3(C)C)[C@]2(C)CCC1=O`, the IC50 in the series with MDA-MB-231 [1] is above 50 µM; in the series on MDA-MB-231 [2] it was above 50 µM; with MDA-MB-231 [2] (read-out: pIC50 (converted)) it was 77.8 µM; in the series with MCF7 it was above 50 µM.

With `CC1(C)O[C@H]2CC[C@@](C)(O)[C@@H](CC[C@@H]3C(C=O)=CC[C@H]4[C@H](CC[C@]4(C)O)C3(C)C)[C@]2(C)CC[C@@H]1O`, the IC50 in the series with MDA-MB-231 [1] was above 50 µM; with MDA-MB-231 [2], above 50 µM; with MDA-MB-231 [2] (read-out: pIC50 (converted)), 51.2 µM; in the series on MCF7, above 50 µM.

Consider `CC1=CCC2C(CC[C@@]2(C)O)C(C)(C)C1CC[C@@H]1[C@@]2(C)CC[C@@H](O)C(C)(C)O[C@@H]2CC[C@]1(C)O` (stereo partly drawn) [SIPHOLENOL A], for which the IC50 was above 50 µM in the series with MDA-MB-231 [1], 37.5 µM in the series with MDA-MB-231 [2], 37.5 µM in the series on MDA-MB-231 [2] (read-out: pIC50 (converted)) and 44.5 µM with MCF7.

Turning to `CC1=CC[C@H]2[C@H](CC[C@]2(C)O)C(C)(C)[C@@H]1CC[C@H]1[C@]2(C)CC[C@H](OC(=O)c3cccc([N+](=O)[O-])c3)C(C)(C)O[C@H]2CC[C@@]1(C)O`, the IC50 was 34.7 µM in the series on MDA-MB-231 [1], 5.9 µM with MDA-MB-231 [2], 5.9 µM in the series with MDA-MB-231 [2] (read-out: pIC50 (converted)) and 36 µM in the series on MCF7. The Activity result in series [3] and in series [4] was “Non-toxic” in each case.

For the compound `CC1=CC[C@H]2[C@H](CC[C@]2(C)O)C(C)(C)[C@@H]1CC[C@H]1[C@]2(C)CC[C@H](OC(=O)c3ccncc3)C(C)(C)O[C@H]2CC[C@@]1(C)O`, the IC50 in the series with MDA-MB-231 [1] was 18 µM; in the series with MDA-MB-231 [2], 10.6 µM; with MDA-MB-231 [2] (read-out: pIC50 (converted)), 10.6 µM; with MCF7, 25.3 µM.

Turning to `CC1=CC[C@H]2[C@@H]1CC=C(C)[C@@H](CC[C@H]1[C@]3(C)CC[C@H](OC(=O)c4ccc(Cl)cc4)C(C)(C)O[C@H]3CC[C@@]1(C)O)C2(C)C`, the IC50 in the series with MDA-MB-231 [1] was 12.7 µM; with MDA-MB-231 [2], 5.9 µM; in the series with MCF7, 22 µM.

`CC1=CC[C@H]2[C@H](CC[C@]2(C)O)C(C)(C)[C@@H]1CC[C@H]1[C@]2(C)CC[C@H](OC(=O)c3ccccc3C(F)(F)F)C(C)(C)O[C@H]2CC[C@@]1(C)O`: the IC50 is 31.5 µM in the series with MDA-MB-231 [1], 34.5 µM in the series with MDA-MB-231 [2], 34.5 µM in the series with MDA-MB-231 [2] (read-out: pIC50 (converted)) and 19.2 µM in the series on MCF7. In addition, the Activity result in series [3] and in series [4] was “Non-toxic” each time.

On to `CC1=CC[C@H]2[C@H](CC[C@]2(C)O)C(C)(C)[C@@H]1CC[C@H]1[C@]2(C)CC/C(=N/O)C(C)(C)O[C@H]2CC[C@@]1(C)O`, for which the IC50 in the series with MDA-MB-231 [1] was 42.7 µM; in the series with MDA-MB-231 [2] it was above 50 µM; in the series on MDA-MB-231 [2] (read-out: pIC50 (converted)), 52.7 µM; in the series with MCF7, 46.8 µM.

`CC(=O)O[C@H]1CC[C@]2(C)[C@H](CC[C@@](C)(O)[C@H]2CC[C@@H]2C(C)=CC[C@H]3[C@H](CC[C@]3(C)O)C2(C)C)OC1(C)C`: the IC50 in the series on MDA-MB-231 [1] came out at 38 µM; in the series on MDA-MB-231 [2] it was 16.8 µM; with MCF7, 47.9 µM.

For `CC1=CC[C@H]2[C@H](CC[C@]2(C)O)C(C)(C)[C@@H]1CC[C@H]1[C@]2(C)CC[C@H](OC(=O)NCc3ccccc3)C(C)(C)O[C@H]2CC[C@@]1(C)O`, the IC50 was 40.3 µM in the series on MDA-MB-231 [1], 13.9 µM in the series on MDA-MB-231 [2], 13.9 µM with MDA-MB-231 [2] (read-out: pIC50 (converted)) and 24.5 µM with MCF7.
